Results published in US8884030B2, “Inhibitors of Flaviviridae viruses” (priority 2010, dated 2014).

Tested on: human hepatoma Huh-7 cell line harboring a HCV replicon
Assay: HCV replicon assay (inhibition of viral replication, luciferase)
Format: cell-based
Conditions: Hepatitis C virus, 72 h; 2 μM; Huh-7 HCV replicon cells, 3 days incubation; inhibition of viral replication; read-out: % inhibition at 2 μM
Experimental: The anti-HCV activity of the compounds of this invention was tested in a human hepatoma Huh-7 cell line harboring a HCV replicon. The assay comprised the following steps:
Step 1: Compound Preparation and Serial Dilution.
Serial dilution was performed in 100% DMSO in a 384-well plate. A solution containing a compound at 225-fold concentration of the starting final serial dilution concentration was prepared in 100% DMSO and 15 uL added to the pre-specified wells in column 3 or 13 of a polypropylene 384-well plate. The rest of the 384-well plate was filled with 10 uL 100% DMSO except for columns 23 and 24, where 10 uL of 500 uM a HCV protease inhibitor (ITMN-191) in 100% DMSO was added. The HCV protease inhibitor was used a control of 100% inhibition of HCV replication. The plate was then placed on a Biomek FX Workstation to start the serial dilution. The serial dilution was performed for ten cycles of 3-fold dilution from column 3 to 12 or from column 13 to 22.
Step 2: Cell Culture Plate Preparation and Compound Addition
To each well of a black polypropylene 384-well plate, 90 μL of cell media containing 1600 suspended Huh-7 HCV replicon cells was added with a Biotek uFlow Workstation. A volume of 0.4 μL of the compound solution was transferred from the serial dilution plate to the cell culture plate on a Biomek FX Workstation. The DMSO concentration in the final assay condition was 0.44%. The plates were incubated for 3 days at 37° C. with 5% CO2 and 85% humidity.
Step 3: Detection of Cytotoxicity and Inhibition of Viral Replication
a) Assessment of cytotoxicity: The media in the 384-well cell culture plate was aspirated with a Biotek EL405 plate-washer. A volume of 50 μL of a solution containing 400 nM Calcein AM in 100% PBS was added to each well of the plate with a Biotek uFlow Workstation. The plate was incubated for 30 minutes at room temperature before the fluorescence signal ([…]) was measured with a Perkin Elmer Envision Plate Reader.
b) Assessment of inhibition of viral replication: The calcein-PBS solution in the 384-well cell culture plate was aspirated with a Biotek EL405 plate-washer. A volume of 20 μL of Dual-Glo luciferase buffer (Promega, Dual-Glo Luciferase Assay Reagent, cat. #E298B) was added to each well of the plate with a Biotek uFlow Workstation. The plate was incubated for 10 minutes at room temperature. A volume of 20 μL of a solution containing 1:100 mixture of Dual-Glo Stop & Glo substrate(Promega, Dual-Glo Luciferase Assay Reagent, cat. #E313B) and Dual-Glo Stop & Glo buffer (Promega, Dual-Glo Luciferase Assay Reagent, cat. #E314B) was then added to each well of the plate with a Biotek uFlow Workstation. The plate was incubated at room temperature for 10 minutes before the luminescence signal was measured with a Perkin Elmer Envision Plate Reader.
The percent cytotoxicity was determined by calcein AM conversion to fluorescent product. The average fluorescent signal from the DMSO control wells were defined as 100% nontoxic. The individual fluorescent signal from testing compound treated well was divided by the average signal from DMSO control wells and then multiplied by 100% to get the percent viability. The percent anti-HCV replication activity was determined by the luminescence signal from the testing well compared to DMSO controls wells. The background signal was determined by the average luminescence signal from the HCV protease inhibitor treated wells and was subtracted from the signal from the testing wells as well as the DMSO control wells. Following 3-fold serial dilutions, the EC50 and CC50 values were calculated by fitting % inhibition at each concentration to the following equation: % inhibition=100%[(EC50/[l])^b+1]
Where b is Hill's coefficient. See, for reference, Hill, A. V., The Possible Effects of the Aggregation of the Molecules of Hæmoglobin on its Dissociation Curves, J. Physiol. 40: iv-vii. (1910). […]

Structure (SMILES)	inhibition at 2 µM [%]
CC(C)(C)C#Cc1cc(N(C(=O)[C@H]2CC[C@H](C)CC2)[C@H]2CCN(C(=O)OC3CCS(=O)(=O)C3)C2)c(C(=O)O)s1 (stereo partly drawn) [Compound 70, 3-[[2-carboxy-5-(3,3-dimethyl-but-1-ynyl)-thiophene-3-yl]-(trans-4-methylcyclohexanecarbonyl)-3-(S)-amino]-pyrrolidine-1-carboxylic acid 1,1-dioxo-tetrahydro-1λ^6-thiophene-3-yl ester]	99.1
CC(C)(C)C#Cc1cc(N(C(=O)[C@H]2CC[C@H](C)CC2)C2CCN(C(=O)OC3(C)CCN(C(=O)OC(C)(C)C)C3)CC2)c(C(=O)O)s1 (some centres unmarked) [Compound 71]	95.1
CC(C)(C)C#Cc1cc(N(C(=O)[C@H]2CC[C@H](C)CC2)C2CCN(C(=O)OC3(C)CCNC3)CC2)c(C(=O)O)s1 (stereo partly drawn) [Compound 72, 4-[[2-Carboxy-5-(3,3-dimethyl-but-1-ynyl)-thiophen-3-yl]-(trans-4-methyl-cyclohexanecarbonyl)-amino]-piperidine-1-carboxylic acid 3-methyl-pyrrolidin-3-yl ester]	99.7
CC(C)(C)C#Cc1cc(N(C(=O)[C@H]2CC[C@H](C)CC2)C2CCN(C(=O)OC3(C)CN(C(=O)OC(C)(C)C)C3)CC2)c(C(=O)O)s1 [Compound 73, 4-[[2-carboxy-5-(3,3-dimethyl-but-1-ynyl)-thiophen-3-yl]-(trans-4-methyl-cyclohexanecarbonyl)-amino]-piperidine-1-carboxylic acid 1-tert-butoxycarbonyl-3-methyl-azetidin-3-yl ester]	93.1
CC(C)(C)C#Cc1cc(N(C(=O)[C@H]2CC[C@H](C)CC2)C2CCN(C(=O)OC3CCS(=O)(=O)C3)CC2)c(C(=O)O)s1 (stereo partly drawn) [Compound 74, 4-[[2-carboxy-5-(3,3-dimethyl-but-1-ynyl)-thiophen-3-yl]-(trans-4-methyl-cyclohexanecarbonyl)-amino]-piperidine-1-carboxylic acid 1,1-dioxo-tetrahydro-1λ^6-thiophen-3-yl ester]	99.7
CC(C)(C)C#Cc1cc(N(C(=O)[C@H]2CC[C@H](C)CC2)C2CCC(NC(=O)OC3(C)CCN(C(=O)OC(C)(C)C)C3)CC2)c(C(=O)O)s1 (some centres unmarked) [Compound 75]	97.5
CC(C)(C)C#Cc1cc(N(C(=O)[C@H]2CC[C@H](C)CC2)C2CCC(NC(=O)OC3(C)CCNC3)CC2)c(C(=O)O)s1 (stereo partly drawn) [Compound 76, 5-(3,3-Dimethyl-but-1-ynyl)-3-{(trans-4-cyclohexanecarbonyl)-[4-(3-methyl-pyrrolidin-3-yloxycarbonylamino)-cyclohexyl]-amino}-thiophene-2-carboxylic acid]	99.4
CC(C)(C)C#Cc1cc(N(C(=O)[C@H]2CC[C@H](C)CC2)C2CCC(NC(=O)OC3CCS(=O)(=O)C3)CC2)c(C(=O)O)s1 (stereo partly drawn) [Compound 77, 5-(3,3-dimethyl-but-1-ynyl)-3-[[4-(1,1-dioxo-tetrahydro-1λ^6-thiophen-3-yloxycarbonylamino)-cyclohexyl]-(trans-4-methylcyclohexanecarbonyl)-amino]-thiophene-2-carboxylic acid]	99.9
CC1CCC(C(=O)N(c2cc(C#CC(C)(C)C)sc2C(=O)O)C2CCC(NN(C)c3ccccn3)CC2)CC1 (centres unmarked) [Compound 79, 5-(3,3-Dimethyl-but-1-ynyl)-3-{(4-methyl-cyclohexanecarbonyl)-[4-(N′-methyl-N′-pyridin-2-yl-hydrazino)-cyclohexyl]-amino}-thiophene-2-carboxylic acid]	100
CN(NC1CCC(N(c2cc(C#CC(C)(C)C)sc2C(=O)O)C(=O)[C@H]2CC[C@H](C)CC2)CC1)c1cnccn1 (some centres unmarked) [Compound 80, 5-(3,3-Dimethyl-but-1-ynyl)-3-{(4-methyl-cyclohexanecarbonyl)-[4-(N′-methyl-N′-pyrazin-2-yl-hydrazino)-cyclohexyl]-amino}-thiophene-2-carboxylic acid]	99.8
CC1CCC(C(=O)N(c2cc(C#CC(C)(C)C)sc2C(=O)O)C2CCC(NN(C)c3nccs3)CC2)CC1 (centres unmarked) [Compound 81, 5-(3,3-Dimethyl-but-1-ynyl)-3-{(4-methyl-cyclohexanecarbonyl)-[4-(N′-methyl-N′-thiazol-2-yl-hydrazino)-cyclohexyl]-amino}-thiophene-2-carboxylic acid]	100
CC1CCC(C(=O)N(c2cc(C#CC(C)(C)C)sc2C(=O)O)C2CCC(NN(C)c3ccc(O)nn3)CC2)CC1 (centres unmarked) [Compound 82, 5-(3,3-Dimethyl-but-1-ynyl)-3-[{4-[N′-(6-hydroxy-pyridazin-3-yl)-N′-methyl-hydrazino]-cyclohexyl}-(4-methyl-cyclohexanecarbonyl)-amino]-thiophene-2-carboxylic acid]	100
CC1CCC(C(=O)N(c2cc(C#CC(C)(C)C)sc2C(=O)O)C2CCC(NN(C)c3ccc(Cl)nn3)CC2)CC1 (centres unmarked) [Compound 83, 3-[{4-[N′-(6-Chloro-pyridazin-3-yl)-N′-methyl-hydrazino]-cyclohexyl}-(4-methyl-cyclohexanecarbonyl)-amino]-5-(3,3-dimethyl-but-1-ynyl)-thiophene-2-carboxylic acid]	99.9
CC(C)(C)C#Cc1cc(N(C(=O)[C@H]2CC[C@H](C)CC2)C2CCC(=NOCc3ccccn3)CC2)c(C(=O)O)s1 (stereo partly drawn) [Compound 112, 5-(3,3-Dimethyl-but-1-ynyl)-3-{(4-trans-methyl-cyclohexanecarbonyl)-[4-(pyridin-2-ylmethoxyimino)-cyclohexyl]-amino}-thiophene-2-carboxylic acid]	99.9
CC(C)(C)C#Cc1cc(N(C(=O)[C@H]2CC[C@H](C)CC2)C2CCC(=NOCc3ccccc3)CC2)c(C(=O)O)s1 (some centres unmarked) [Compound 113]	98.1
CC(C)(C)C#Cc1cc(N(C(=O)[C@H]2CC[C@H](C)CC2)C2CCC(=NOCn3cncn3)CC2)c(C(=O)O)s1 (some centres unmarked) [Compound 114, 3-(N-(4-((1H-1,2,4-Triazol-1-yl)methoxyimino)cyclohexyl)-4-methylcyclohexanecarboxamido)-5-(3,3-dimethylbut-1-ynyl)thiophene-2-carboxylic acid]	100
CC(C)(C)C#Cc1cc(N(C(=O)[C@H]2CC[C@H](C)CC2)C2CCC(=NOCC(=O)O)CC2)c(C(=O)O)s1 (some centres unmarked) [Compound 115, 3-(N-(4-(Carboxymethoxyimino)cyclohexyl)-4-methylcyclohexanecarboxamido)-5-(3,3-dimethylbut-1-ynyl)thiophene-2-carboxylic acid]	99.8
CC(C)(C)C#Cc1cc(N(C(=O)[C@H]2CC[C@H](C)CC2)C2CCC(=NOCC#N)CC2)c(C(=O)O)s1 (some centres unmarked) [Compound 116, 3-(N-(4-(Cyanomethoxyimino)cyclohexyl)-4-methylcyclohexanecarboxamido)-5-(3,3-dimethylbut-1-ynyl)thiophene-2-carboxylic acid]	99.9
CC1CCC(C(=O)N(c2cc(C#CC(C)(C)C)sc2C(=O)O)C2CCC(=NOCc3ccncc3)CC2)CC1 (centres unmarked) [Compound 117, 5-(3,3-Dimethylbut-1-ynyl)-3-(4-methyl-N-(4-(pyridin-4-ylmethoxyimino)cyclohexyl)cyclohexanecarboxamido)thiophene-2-carboxylic acid]	99.9
CC1CCC(C(=O)N(c2cc(C#CC(C)(C)C)sc2C(=O)O)C2CCC(=NOCc3cccnc3)CC2)CC1 (centres unmarked) [Compound 118, 5-(3,3-Dimethylbut-1-ynyl)-3-(4-methyl-N-(4-(pyridin-3-ylmethoxyimino)cyclohexyl)cyclohexanecarboxamido)thiophene-2-carboxylic acid]	100
